Assay results taken from patent US9951046B2, “TRPA1 modulators” (Algomedix, Inc., priority 2014, dated 2018).

biological target: T1, human TRPA1 (Homo sapiens, UniProt O75762); assay: Cell-based functional intracellular calcium ([Ca2+]i) assay, Fluo-4/Fluo-8, FlexStation, challenge with reference TRPA1 agonist (FFA, AITC or 4-HNE); conditions: not given
T1 construct: expressed in transfected cells
Summary of the method: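 Doxycycline-induced (1 μg/ml) HEK293 expressing human TRPA1, with 5 μM ruthenium red during induction, loaded with Fluo-4 or Fluo-8 plus 2 mM probenecid; FlexStation read at 20-25° C, sometimes with 0.1% BSA.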

T1 sequence (O75762 whole entry): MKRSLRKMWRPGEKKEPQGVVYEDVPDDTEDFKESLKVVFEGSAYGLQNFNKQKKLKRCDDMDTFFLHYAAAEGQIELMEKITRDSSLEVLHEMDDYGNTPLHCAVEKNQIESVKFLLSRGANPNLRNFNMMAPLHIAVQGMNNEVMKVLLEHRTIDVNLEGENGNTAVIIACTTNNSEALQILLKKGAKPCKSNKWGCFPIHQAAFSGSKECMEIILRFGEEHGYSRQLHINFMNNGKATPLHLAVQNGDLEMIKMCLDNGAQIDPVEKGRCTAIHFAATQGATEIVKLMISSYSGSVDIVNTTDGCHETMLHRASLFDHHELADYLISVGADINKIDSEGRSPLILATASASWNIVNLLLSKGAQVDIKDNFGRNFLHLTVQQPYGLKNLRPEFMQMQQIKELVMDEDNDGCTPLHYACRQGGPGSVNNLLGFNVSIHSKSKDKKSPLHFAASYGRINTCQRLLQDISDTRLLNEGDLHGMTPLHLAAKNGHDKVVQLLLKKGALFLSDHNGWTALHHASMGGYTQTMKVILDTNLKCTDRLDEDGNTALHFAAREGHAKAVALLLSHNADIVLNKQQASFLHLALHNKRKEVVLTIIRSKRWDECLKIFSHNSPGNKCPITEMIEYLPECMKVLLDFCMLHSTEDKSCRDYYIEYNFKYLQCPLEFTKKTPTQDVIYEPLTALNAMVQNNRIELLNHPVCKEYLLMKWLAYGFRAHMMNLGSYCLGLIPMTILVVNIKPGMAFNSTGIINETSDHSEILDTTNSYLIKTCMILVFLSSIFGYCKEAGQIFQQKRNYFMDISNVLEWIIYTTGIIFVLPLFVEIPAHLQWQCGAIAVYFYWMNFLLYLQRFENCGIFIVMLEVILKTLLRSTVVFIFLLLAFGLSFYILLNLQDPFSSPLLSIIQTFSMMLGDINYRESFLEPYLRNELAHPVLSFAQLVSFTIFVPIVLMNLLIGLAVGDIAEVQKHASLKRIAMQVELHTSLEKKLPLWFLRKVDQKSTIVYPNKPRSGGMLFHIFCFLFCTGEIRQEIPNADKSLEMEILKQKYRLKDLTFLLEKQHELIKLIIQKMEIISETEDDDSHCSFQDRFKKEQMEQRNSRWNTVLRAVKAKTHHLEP

Compound | IC50
N#Cc1ccc(-n2nc(C(=O)N3C4CCC3CC3(C4)C(=O)NCN3c3ccc(F)cc3)cc2-c2cccnc2)cc1F (stereo not shown) [Compound 330] | 0.001 to 5 µM
O=C(c1cc(-c2ccncc2)n(-c2ccc(C(F)(F)F)c(F)c2)n1)N1CCC(N2C(=O)Cc3ccccc32)CC1 [Compound 98] | 5 to 25 µM
O=C(c1cc(-c2ccncc2)n(-c2ccc(C(F)(F)F)cc2)n1)N1CCC(N2C(=O)Cc3ccccc32)CC1 [Compound 54] | > 25 µM
CCCC1COC2(CCN(C(=O)c3cc(-c4ccncc4)n(-c4ccc(C(F)(F)F)cc4)n3)CC2)O1 (stereo not shown) [Compound 74] | > 25 µM
CCCC1COC2(CCN(C(=O)c3cc(-c4ccncc4)n(-c4ccc(F)c(F)c4)n3)CC2)O1 (stereo not shown) [Compound 96] | > 25 µM

same assay, conditions: HEK293 cells expressing human TRPA1; IC50 class after addition of reference TRPA1 agonist (FFA, AITC or 4-HNE); read-out: human TRPA1-HEK Activity

Compound | IC50
O=C(c1cc(-c2ccc(Cl)nc2)n(-c2ccc(C(F)(F)F)c(F)c2)n1)N1CCC2(CC1)C(=O)NCN2c1ccc(F)cc1 [Compound 238] | 0.001 to 5 µM
O=C(c1cc(-c2ccncc2)n(-c2ccc(C(F)(F)F)c(F)c2)n1)N1CCC(n2c(=O)[nH]c3ccccc32)CC1 [Compound 162] | 5 to 25 µM
O=C(c1cc(-c2ccncc2)n(-c2ccc(F)c(F)c2)n1)N1CCC2(CC1)C(=O)NCN2c1ccc(Cl)cc1 [Compound 78] | > 25 µM
N#CC1(c2ccccc2)CCN(C(=O)c2cc(-c3ccncc3)n(-c3ccccc3)n2)CC1 [Compound 28] | > 25 µM
Cn1c(=O)c(=O)n(C)c2cc(NC(=O)c3cc(-c4ccncc4)n(-c4ccc(F)c(F)c4)n3)ccc21 [Compound 91] | > 25 µM
O=C(c1cc(-c2ccncc2)n(-c2ccc(F)c(F)c2)n1)N1CCC2(CC1)OCc1ccccc12 [Compound 79] | > 25 µM
O=C(c1cc(-c2cccnc2)n(-c2ccc(F)c(C(F)(F)F)c2)n1)N1CCC(N2Cc3c(F)cccc3NC2=O)CC1 [Compound 289] | 0.001 to 5 µM
CN1C(=O)COc2cc(NC(=O)c3cc(-c4ccncc4)n(-c4ccc(F)c(F)c4)n3)ccc21 [Compound 89] | > 25 µM
O=C1OC2(CCN(C(=O)c3cc(-c4ccncc4)n(-c4ccc(C(F)(F)F)c(F)c4)n3)CC2)c2ccccc21 [Compound 102] | > 25 µM
O=C(c1cc(-c2cccnc2)n(-c2cc(F)c(F)c(F)c2)n1)N1CCC(n2c(=O)[nH]c3ncccc32)CC1 [Compound 256] | > 25 µM
O=C(c1cc(-c2ccncc2)n(-c2ccc(F)c(F)c2)n1)N1CCC(n2c(=O)[nH]c3ccccc32)CC1 [Compound 150] | 5 to 25 µM
Cc1cnc(-c2cc(C(=O)N3CCC4(CC3)C(=O)NCN4c3ccc(F)cc3)nn2-c2ccc(C(F)(F)F)cc2)c(C)n1 [Compound 52] | > 25 µM
O=C(c1cc(-c2ccc(Cl)nc2)n(-c2ccc(C(F)(F)F)c(F)c2)n1)N1CCC(n2c(=O)[nH]c3ccc(F)c(F)c32)CC1 [Compound 239] | 0.001 to 5 µM
N#Cc1ccc2[nH]c(=O)n(C3CCN(C(=O)c4cc(-c5cccnc5)n(-c5ccc(C#N)c(F)c5)n4)CC3)c2c1 [Compound 328] | 0.001 to 5 µM
O=C(Nc1ccc2[nH]c(=O)oc(=O)c2c1)c1cc(-c2ccncc2)n(-c2ccccc2)n1 [Compound 38] | 5 to 25 µM
O=C(c1cc(-c2cccnc2)n(-c2ccc(OC(F)(F)F)cc2)n1)N1CCC(n2c(=O)[nH]c3ccc(F)c(F)c32)CC1 [Compound 220] | 0.001 to 5 µM
CC1CC(n2c(=O)[nH]c3ccc(F)c(F)c32)CC(C)N1C(=O)c1cc(-c2cccnc2)n(-c2ccc(C(F)(F)F)c(F)c2)n1 (stereo not shown) [Compound 194] | 5 to 25 µM
O=C(c1cc(-c2ccncc2)n(-c2ccc(F)c(F)c2)n1)N1CCC2(CC1)C(=O)NCN2c1ccccc1 [Compound 149] | 5 to 25 µM
O=C1Nc2ccc(C(F)(F)F)cc2C2(CCN(C(=O)c3cc(-c4cccnc4)n(-c4ccc(F)c(C(F)(F)F)c4)n3)CC2)O1 [Compound 274] | 0.001 to 5 µM
O=C(c1cc(-c2ccncc2)n(-c2ccccc2)n1)N1CCC2(CCNC2=O)CC1 [Compound 13] | > 25 µM

Compound | IC50
O=C(c1cc(-c2cccnc2Cl)n(-c2ccc(C(F)(F)F)c(F)c2)n1)N1CCC2(CC1)C(=O)NCN2c1ccc(F)cc1 [Compound 317] | 0.001 to 5 µM
Cn1c(=O)n(C2CCN(C(=O)c3cc(-c4ccncc4)n(-c4ccccc4)n3)CC2)c2ccccc21 [Compound 172] | > 25 µM
Cc1c(C(=O)N2CCC3(CC2)C(=O)NCN3c2ccc(F)cc2)nn(-c2cc(F)c(F)c(F)c2)c1-c1cccnc1 [Compound 266] | 0.001 to 5 µM
O=C(c1cc(-c2cccnc2)n(-c2ccc(I)c(C(F)(F)F)c2)n1)N1CCC2(CC1)C(=O)NCN2c1ccc(F)cc1 [Compound 326] | 0.001 to 5 µM
O=C(c1cc(-c2cccnc2)n(-c2cc(F)c(F)c(F)c2)n1)N1CCC2(CC1)C(=O)NCN2c1ccc(I)cc1 [Compound 200] | 0.001 to 5 µM
O=C(c1cc(-c2cccnc2)n(-c2ccc(Cl)c(C(F)(F)F)c2)n1)N1CCC2(CC1)C(=O)NCN2c1ccc(F)cc1 [Compound 296] | 0.001 to 5 µM
O=C(c1cc(-c2ccncc2)n(-c2ccccc2)n1)N1CCC2(CC1)C(=O)NCN2c1ccccc1 [Compound 8] | 5 to 25 µM
N#Cc1ccc(-n2nc(C(=O)N3CCC(n4c(=O)[nH]c5ccc(F)c(F)c54)CC3)cc2-c2cccnc2)cc1 [Compound 212] | 0.001 to 5 µM
O=C1Nc2ccc(F)cc2C2(CCN(C(=O)c3cc(-c4cccnc4)n(-c4cc(F)c(F)c(F)c4)n3)CC2)O1 [Compound 231] | 0.001 to 5 µM
O=C(c1cc(-c2ccncc2)n(-c2ccc(C(F)(F)F)cc2)n1)N1CCC2(CC1)OCc1ccccc12 [Compound 57] | > 25 µM
CC1CC(n2c(=S)[nH]c3ccc(F)c(F)c32)CCN1C(=O)c1cc(-c2cccnc2)n(-c2ccc(F)c(C(F)(F)F)c2)n1 (stereo not shown) [Compound 294] | 0.001 to 5 µM
O=C(c1cc(-c2ccncc2)n(-c2ccc(F)c(F)c2)n1)N1CCC(N2C(=O)OC[C@H]2c2ccccc2)CC1 [Compound 84] | > 25 µM
N#Cc1cccc2[nH]c(=O)n(C3CCN(C(=O)c4cc(-c5cccnc5)n(-c5cc(F)c(F)c(F)c5)n4)CC3)c12 [Compound 232] | 0.001 to 5 µM
Cc1cc(N2CNC(=O)C23CCN(C(=O)c2cc(-c4cccnc4)n(-c4ccc(F)c(C(F)(F)F)c4)n2)CC3)cc(C)c1F [Compound 242] | 0.001 to 5 µM
N#Cc1cc(-n2nc(C(=O)N3CCC(n4c(=O)[nH]c5ccc(F)c(F)c54)CC3)cc2-c2cccnc2)ccc1F [Compound 248] | 0.001 to 5 µM
CC1CN(C(=O)c2cc(-c3cccnc3)n(-c3cc(F)c(F)c(F)c3)n2)CC(C)C1n1c(=O)[nH]c2ccc(F)c(F)c21 (stereo not shown) [Compound 207] | > 25 µM
O=C(c1cc(-c2cccnc2)n(-c2cc(F)c(F)c(F)c2)n1)N1CCC2(CC1)C(=O)NCN2c1ccc(F)cc1F [Compound 257] | > 25 µM
O=C(c1cc(-c2ccncc2)n(-c2ccc(C(F)(F)F)c(F)c2)n1)N1CC(=O)N2CCc3ccccc3C2C1 (stereo not shown) [Compound 104] | > 25 µM
O=C1Nc2cc(F)ccc2C2(CCN(C(=O)c3cc(-c4cccnc4)n(-c4ccc(F)c(C(F)(F)F)c4)n3)CC2)O1 [Compound 278] | 0.001 to 5 µM
O=C(c1cc(-c2ccncc2)n(-c2ccccc2)n1)N1CCN(c2ccc(C(F)(F)F)cn2)CC1 [Compound 32] | > 25 µM

Compound | IC50
O=C(c1cc(-c2ccncc2)n(-c2ccccc2)n1)N1CCC2(CC1)CC(F)(F)CO2 [Compound 16] | 5 to 25 µM
Cc1cc(N2CNC(=O)C23CCN(C(=O)c2cc(-c4cccnc4)n(-c4ccc(C(F)(F)F)c(F)c4)n2)CC3)cc(C)c1F [Compound 195] | 0.001 to 5 µM
Cc1cc(N2CNC(=O)C23CCN(C(=O)c2cc(-c4cccnc4)n(-c4ccc(C#N)c(F)c4)n2)CC3)cc(C)c1F [Compound 329] | 0.001 to 5 µM
O=C(c1cc(-c2cccnc2Cl)n(-c2ccc(C(F)(F)F)c(F)c2)n1)N1CCC(n2c(=O)[nH]c3ccc(F)c(F)c32)CC1 [Compound 247] | > 25 µM
Cc1cc(N2CNC(=O)C23CCN(C(=O)c2cc(-c4cccnc4)n(-c4cc(F)c(F)c(F)c4)n2)CC3)ccc1F [Compound 255] | 0.001 to 5 µM
O=C(c1cc(-c2ccncc2)n(-c2cnccn2)n1)N1CCC(c2nc3ccccc3o2)CC1 [Compound 129] | > 25 µM
O=C(c1cc(-c2ccncc2)n(-c2ccc(C(F)(F)F)cc2)n1)N1CCC2(CC1)SCCS2 [Compound 63] | > 25 µM
COc1cc(F)ccc1N1CNC(=O)C12CCN(C(=O)c1cc(-c3cccnc3)n(-c3ccc(C(F)(F)F)c(F)c3)n1)CC2 [Compound 197] | 5 to 25 µM
O=C(c1cc(-c2cccnc2)n(-c2ccc(C(F)(F)F)c(F)c2F)n1)N1CCC(n2c(=O)[nH]c3ccc(F)c(F)c32)CC1 [Compound 222] | 0.001 to 5 µM
O=C(c1cc(-c2ccncc2)n(-c2ccc(C(F)(F)F)cc2)n1)N1CC(=O)N2CCc3ccccc3C2C1 (stereo not shown) [Compound 60] | 5 to 25 µM
O=C(c1cc(-c2cccnc2)n(-c2ccc(C(F)(F)F)c(F)c2)n1)N1CCC2(CC1)C(=O)Nc1ccccc12 [Compound 259] | 5 to 25 µM
N#Cc1cc2[nH]c(=O)n(C3CCN(C(=O)c4cc(-c5cccnc5)n(-c5cc(F)c(F)c(F)c5)n4)CC3)c2cc1F [Compound 235] | 0.001 to 5 µM
O=C(c1cc(-c2ccncc2)n(-c2ccc(F)c(F)c2)n1)N1CCC(c2nc3ccccc3o2)CC1 [Compound 87] | > 25 µM
O=C1OC2(CCN(C(=O)c3cc(-c4ccncc4)n(-c4ccccc4)n3)CC2)c2ccccc21 [Compound 171] | > 25 µM
O=C1Nc2ccc(Cl)cc2C2(CCN(C(=O)c3cc(-c4cccnc4)n(-c4ccc(F)c(C(F)(F)F)c4)n3)CC2)O1 [Compound 280] | 0.001 to 5 µM
O=C(Nc1nc(-c2ccc(C(F)(F)F)cc2)cs1)c1cc(-c2ccncc2)n(-c2ccccc2)n1 [Compound 35] | > 25 µM
O=C(Nc1nc(-c2ccc(F)c(C(F)(F)F)c2)cs1)c1cc(-c2ccncc2)n(-c2ccccc2)n1 [Compound 37] | > 25 µM
O=C(c1cc(-c2ccncc2)n(-c2ccc(C(F)(F)F)cc2)n1)N1CCC(n2c(=O)[nH]c3cc(C(F)(F)F)ccc32)CC1 [Compound 178] | 5 to 25 µM
CC(C)(C)c1ccc(-n2nc(C(=O)N3CCC4(CC3)C(=O)NCN4c3ccc(F)c(F)c3)cc2-c2cccnc2)cc1 [Compound 217] | 0.001 to 5 µM
